Like-named read-outs stand apart in the source and are kept apart here.
How the values were obtained:
PC-3 cells = assay: MTT assay, PC-3 cells; type: cell-based; details: human prostate cancer cells, 72 h, read-out: Cytotoxic activity (IC50) PC-3
Experimental: (§1) Primary human liver HL-7702 cells were purchased from SIBS (Shanghai Institutes for Biological Sciences, Shanghai, China) while MCF-7, A549, PC-9 and PC-3 cells were from ATCC (American Type Culture Collection, Rockville, MD, USA). HL-7702, PC-9 and A549 cells were incubated with Roswell Park Memorial Institute (RPMI) 1640 medium and MCF-7 were cultured in Dulbecco’s Modified Eagle’s Medium (DMEM) supplemented with 10% heat-inactivated fetal bovine serum (FBS) and 1% antibiotics (penicillin and streptomycin). PC-3, a human prostate adenocarcinoma cell, was maintained in Ham’s F-12 Medium supplemented with 10% FBS, 1% penicillin/streptomycin and 1% glutamine. All cells were cultured at 37 °C in an incubator containing 5% CO2. The cell viability was determined by using the MTT (methyl thiazolyl tetrazolium bromide) assay. Briefly, cells were seeded in 96-well plates (4 × 10^3 cells/well) overnight and exposed to the synthesized compounds with various concentrations. Camptothecin and dimethyl sulfoxide (DMSO) served as a positive control and a negative control respectively. After 72 h of incubation, 20 μL of MTT (5 mg/mL in phosphate buffer saline (PBS)) were added into each well. Dissolved yellowish MTT is converted to an insoluble purple formazan during incubation (4 h). In order to dissolve the formazan crystals, 100 μL of lysis solution (10% SDS (sodium dodecyl sulfate)-5% isobutyl alcohol-0.01M HCl) was added into per well. Finally, the optical density (OD) of solution in the plates was measured using a microplate reader at 570 nm after dissolving overnight. Cell viability was calculated by using the following formula: […].

PC-9 cells = assay: MTT assay, PC-9 cells; type: cell-based; details: human non-small cell lung cancer cells, 72 h, read-out: Cytotoxic activity (IC50) PC-9
Experimental: as §1

A549 cells = assay: MTT assay, A549 cells; type: cell-based; details: human non-small cell lung cancer cells, read-out: Cytotoxic activity (IC50) A549
Experimental: as §1

MTT assay, HL-7702 cells = type: cell-based, human; details: HL-7702 cells (normal liver cells); normal human liver cells, MTT, 72 h; read-out: Cytotoxic activity (IC50) HL-7702
Experimental: as §1

MCF-7 cells = assay: MTT assay, MCF-7 cells; type: cell-based; details: MCF7, human breast cancer cells, 72 h, read-out: Cytotoxic activity (IC50) MCF-7
Experimental: as §1

| Structure (SMILES) | IC50 (PC-3 cells) | IC50 (PC-9 cells) | IC50 (A549 cells; Homo sapiens, A549, 72 h) | IC50 at 72 h (MTT assay, HL-7702 cells) | IC50 (MCF-7 cells) | IC50 (A549 cells; 72 h) | melting point |
| --- | --- | --- | --- | --- | --- | --- | --- |
| Cc1ccc(-c2nc3sc4c(c3c(=O)n2CCc2ccc(O)cc2)CCOC4)cc1 [Compound 24] | > 100 µM | > 100 µM | 32.9 ± 1.84 µM | > 100 µM | > 100 µM | – | – |
| O=c1c2c3c(sc2nc(-c2cccs2)n1CCc1ccc(O)cc1)CCCC3 [Compound 12] | 21.9 ± 1.76 µM | 54.2 ± 2.06 µM | 11.7 ± 0.12 µM | > 100 µM | 36.4 ± 1.41 µM | – | – |
| O=c1c2c3c(sc2nc(-c2ccc(F)cc2)n1CCc1ccc(O)cc1)CCCC3 [Compound 7] | > 100 µM | 44.8 ± 4.47 µM | < 10 µM | > 100 µM | 10.4 ± 1.32 µM | 6.86 ± 0.98 µM | – |
| Cc1cc(-c2nc3sc4c(c3c(=O)n2Cc2ccccc2)CCCC4)sc1C [Compound 6] | > 100 µM | > 100 µM | 17.4 ± 0.88 µM | > 100 µM | 59.86 ± 0.34 µM | – | – |
| Cc1cc(-c2nc3sc4c(c3c(=O)n2CCc2ccc(O)cc2)CCCC4)sc1C [Compound 8] | 87.75 ± 0.63 µM | 92.97 ± 0.52 µM | 50.92 ± 0.07 µM | > 100 µM | > 100 µM | – | – |
| Cc1sc2nc(-c3ccc(Cl)cc3)n(CCc3ccc(O)cc3)c(=O)c2c1C [Compound 23] | > 100 µM | > 100 µM | 46.14 ± 0.17 µM | > 100 µM | 70.64 ± 0.59 µM | – | – |
| Cc1cc(-c2nc3sc4c(c3c(=O)n2CCc2ccc(O)cc2)CCCCC4)sc1C [Compound 14] | 84.68 ± 0.48 µM | 86.33 ± 0.22 µM | 49.8 ± 0.68 µM | 68.64 ± 0.26 µM | 46.1 ± 0.48 µM | – | 186 to 188 °C |
| O=c1c2c3c(sc2nc(-c2ccc(Cl)cc2)n1Cc1ccccc1)CCCC3 [Compound 1] | > 100 µM | > 100 µM | > 100 µM | > 100 µM | > 100 µM | – | – |
| Cc1sc2nc(-c3cccs3)n(Cc3ccccc3)c(=O)c2c1C [Compound 20] | > 100 µM | > 100 µM | 80.1 ± 0.83 µM | > 100 µM | > 100 µM | – | 162 to 164 °C |
| Cc1sc2nc(-c3ccc(F)cc3)n(Cc3ccccc3)c(=O)c2c1C [Compound 21] | > 100 µM | > 100 µM | > 100 µM | > 100 µM | > 100 µM | – | – |
| CC[C@@]1(O)C(=O)OCc2c1cc1n(c2=O)Cc2cc3ccccc3nc2-1 [CAMPTOTHECIN, camptothecin, reference compound] | 0.85 ± 0.01 µM | 0.09 ± 0.01 µM | 0.1 ± 0.02 µM | 0.11 ± 0.03 µM | 0.26 ± 0.05 µM | – | – |
| Cc1ccc(-c2nc3sc4c(c3c(=O)n2Cc2ccccc2)CCCCC4)o1 [Compound 18] | 92 ± 2.34 µM | 58.28 ± 0.18 µM | 63.2 ± 0.03 µM | > 100 µM | 96.36 ± 0.72 µM | – | – |
| O=c1c2c3c(sc2nc(-c2ccc(F)cc2)n1Cc1ccccc1)CCCCC3 [Compound 17] | > 100 µM | > 100 µM | > 100 µM | > 100 µM | > 100 µM | – | 146 to 148 °C |
| O=c1c2c3c(sc2nc(-c2ccccc2)n1Cc1ccccc1)CCCC3 [Compound 2] | > 100 µM | > 100 µM | > 100 µM | > 100 µM | > 100 µM | – | – |
| O=c1c2c3c(sc2nc(-c2ccc(Cl)cc2)n1CCc1ccc(O)cc1)CCCCC3 [Compound 19] | 25.1 ± 0.37 µM | 26.7 ± 1.38 µM | < 10 µM | 19.16 ± 0.06 µM | 13.04 ± 0.11 µM | 6.26 ± 0.87 µM | – |
| O=c1c2c3c(sc2nc(-c2cccs2)n1Cc1ccccc1)CCCC3 [Compound 5] | > 100 µM | 81 ± 3.94 µM | > 100 µM | > 100 µM | 97.5 ± 0.13 µM | – | 185 to 187 °C |
| Cc1cc(-c2nc3sc4c(c3c(=O)n2Cc2ccccc2)CCCCC4)sc1C [Compound 13] | 92.5 ± 1.89 µM | > 100 µM | 49.86 ± 0.3 µM | > 100 µM | 75.94 ± 0.17 µM | – | – |
| O=c1c2c3c(sc2nc(-c2ccc(Cl)cc2)n1Cc1ccccc1)CCCCC3 [Compound 16] | > 100 µM | > 100 µM | 81 ± 1.04 µM | > 100 µM | > 100 µM | – | 170 to 172 °C |
| Cc1ccc(-c2nc3sc4c(c3c(=O)n2Cc2ccccc2)CCCC4)o1 [Compound 3] | 92.9 ± 2.29 µM | 86.1 ± 1.28 µM | 54.4 ± 1.83 µM | 55.17 ± 0.5 µM | > 100 µM | – | – |
| O=c1c2c3c(sc2nc(-c2ccc(C(F)(F)F)c(C(F)(F)F)c2)n1Cc1ccccc1)CCCC3 [Compound 4] | > 100 µM | > 100 µM | 58.2 ± 0.65 µM | > 100 µM | 24.7 ± 2.04 µM | – | 161 to 163 °C |
| O=c1c2c3c(sc2nc(-c2cccc(Cl)c2)n1CCc1ccc(O)cc1)CCCC3 [Compound 9] | > 100 µM | > 100 µM | 19.6 ± 0.33 µM | > 100 µM | 30.7 ± 0.29 µM | – | 238 to 240 °C |
| O=c1c2c3c(sc2nc(-c2ccco2)n1Cc1ccccc1)CCCCC3 [Compound 11] | > 100 µM | > 100 µM | 51.42 ± 0.46 µM | > 100 µM | 65.63 ± 0.26 µM | – | 192 to 194 °C |
| O=c1c2c3c(sc2nc(-c2cccc(Cl)c2)n1Cc1ccccc1)COCC3 [Compound 25] | 94.2 ± 1.83 µM | > 100 µM | 44 ± 0.71 µM | > 100 µM | > 100 µM | – | – |
| Cc1ccc(-c2nc3sc4c(c3c(=O)n2CCc2ccc(O)cc2)CCCC4)cc1 [Compound 10] | 43.4 ± 2.73 µM | 49.7 ± 2.27 µM | < 10 µM | > 100 µM | 27.47 ± 0.02 µM | 8.51 ± 0.16 µM | – |
| Cc1sc2nc(-c3ccccc3)n(CCc3ccc(O)cc3)c(=O)c2c1C [Compound 22] | > 100 µM | > 100 µM | > 100 µM | > 100 µM | 21.9 ± 0.82 µM | – | 251 to 253 °C |

From article PMC6843832, “Synthesis of Novel Analogs of Thieno[2,3-d] Pyrimidin-4(3H)-ones as Selective Inhibitors of Cancer Cell Growth” (Biomolecules, 2019)
